We go through two molecules from US20200255478A1, “NOVEL COMPOUNDS ACTIVATING THE NRF2 PATHWAY” (Almirall, S.A., priority 2017, published 2020).

The test addresses Keap1-Maltose Binding Protein (MBP tag) (Homo sapiens, UniProt Q14145). The experiment in a line: Nrf2-Keap1 HTRF (TR-FRET) binding assay: displacement of biotinylated ETGE peptide from Keap1-MBP. (In general: Time-resolved FRET reads energy transfer from a long-lived donor to a nearby acceptor.)

Each structure is given as a SMILES string. Like-named read-outs stand apart in the source and are kept apart here. Starred links: 1 amine or outer side, 2 acyl side, 3 side chain; linkers in the order of their positions; H or OH if unused. Positions of bridges follow the written chain, without caps; N, C: chain ends. Residues, ends and D or L forms follow the SMILES beside them. *: point of attachment. oXylylene = c1ccc(C[*:2])c(C[*:1])c1; Stearoyl = CCCCCCCCCCCCCCCCCC(=O)*; βAla = NCCC(=O)O

Chain of Keap1-Maltose Binding Protein (MBP tag) (Q14145 whole entry): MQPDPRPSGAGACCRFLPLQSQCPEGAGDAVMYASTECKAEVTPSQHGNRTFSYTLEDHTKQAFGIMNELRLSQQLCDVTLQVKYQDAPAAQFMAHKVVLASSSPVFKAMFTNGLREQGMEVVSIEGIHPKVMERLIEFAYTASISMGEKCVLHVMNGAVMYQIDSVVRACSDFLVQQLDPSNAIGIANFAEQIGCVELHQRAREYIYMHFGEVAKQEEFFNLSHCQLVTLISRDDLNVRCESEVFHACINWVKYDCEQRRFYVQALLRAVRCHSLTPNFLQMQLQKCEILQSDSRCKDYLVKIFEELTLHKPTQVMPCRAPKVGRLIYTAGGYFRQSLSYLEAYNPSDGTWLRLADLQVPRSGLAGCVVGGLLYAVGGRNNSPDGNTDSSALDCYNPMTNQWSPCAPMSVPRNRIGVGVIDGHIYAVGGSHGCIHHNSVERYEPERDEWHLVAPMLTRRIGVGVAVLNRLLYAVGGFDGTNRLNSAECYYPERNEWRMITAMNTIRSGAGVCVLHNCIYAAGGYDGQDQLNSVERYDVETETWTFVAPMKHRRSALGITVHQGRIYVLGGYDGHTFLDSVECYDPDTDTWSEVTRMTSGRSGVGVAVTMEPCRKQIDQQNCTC

The term IC50 denotes the midpoint of a concentration-inhibition curve. In turn, `CC/C=C\C/C=C\C/C=C\CCCCCCCC(=O)N[C@H]1C[C@H]2C(=O)N[C@@H](CCC(N)=O)C(=O)N[C@H]3CSCc4ccccc4CSC[C@H](NC(=O)[C@H](CCC(=O)O)NC(=O)CNC(=O)[C@H]([C@@H](C)O)NC(=O)[C@H](CCC(=O)O)NC(=O)[C@@H]4CCCN4C(=O)[C@H](CC(=O)O)NC3=O)C(=O)N[C@@H](CC(C)C)C(=O)N3CCC[C@@H]3C(=O)N2C1` [Example 86, {[&^1Pro((4S)-NH-α-linolenyl)-Gln-Cys(&^2)-Asp-Pro-Glu-Thr-Gly-Glu-Cys(&^3)-Leu-D-Pro&^1][&^2(1,2-phenylenediyl)dimethylene&^3]}] came in with an IC50 of under 1 nM.

`CCCCCCCCCCCCCCCCCC(=O)NCCC(=O)N[C@@H](CCCCN)C(=O)N[C@@H](CCCCN)C(=O)N[C@H]1CSCc2ccccc2CSC[C@@H](C(=O)N[C@@H](CC(C)C)C(=O)N2CCC[C@H]2C(N)=O)NC(=O)[C@H](CCC(=O)O)NC(=O)CNC(=O)[C@H]([C@@H](C)O)NC(=O)[C@H](CCC(=O)O)NC(=O)[C@@H]2CCCN2C(=O)[C@H](CC(=O)O)NC1=O` [Example 57, {[Stearyl-βAla-Lys-Lys-Cys(&^1)-Asp-Pro-Glu-Thr-Gly-Glu-Cys(&^2)-Leu-Pro-NH2][&^1(1,2-phenylenediyl)dimethylene&^2]}] ({Stearoyl-βAla}-KKCDPETGECLP-NH2; linker 3-10 via oXylylene): where the note is “HTRF (TR-FRET), displacement of ETGE-biotin from Keap1-MBP, values banded into grades, read-out: Binding (IC50) ETGE-Keap1”, the IC50 was under 1 nM.
